From patent publication US7101878B1 (Agouron Pharmaceuticals, Inc., priority 1998, dated 2006)
Like-named read-outs stand apart in the source and are kept apart here.

Target: T1, human GnRH receptor (Homo sapiens, UniProt P30968)
T1 construct: expressed in transfected cells; host or cells: HEK 293 (hGnRH-R/293, from Dr. Stuart Sealfon)
T1 sequence (P30968 1-328): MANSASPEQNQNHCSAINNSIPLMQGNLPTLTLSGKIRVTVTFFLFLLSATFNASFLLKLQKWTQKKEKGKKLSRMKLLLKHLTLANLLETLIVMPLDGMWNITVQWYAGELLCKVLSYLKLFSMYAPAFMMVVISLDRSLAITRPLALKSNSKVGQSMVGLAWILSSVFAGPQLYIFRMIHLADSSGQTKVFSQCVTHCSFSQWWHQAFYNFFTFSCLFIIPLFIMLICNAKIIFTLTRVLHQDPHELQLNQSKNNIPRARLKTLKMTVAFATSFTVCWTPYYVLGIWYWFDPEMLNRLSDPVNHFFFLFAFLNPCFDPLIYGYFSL
Assay: Radioligand binding, 125I-GnRH-A displacement, membranes of HEK 293 cells with human GnRH receptor
Conditions: for remaining activity at 10 µM: read-out: S%R 10 uM hGnRHR; for remaining activity at 1 µM: 1 uM compound, read-out: S%R 1 uM hGnRHR; for IC50: read-out: hGnRH IC50
Procedure, shortened: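 After filtration and PBS washes, bound radioactivity was counted by scintillation and IC50 derived. Identical conditions applied for non-human receptors.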

[1] = 1 h, substrate remaining, 10 uM compound, closer to zero = closer to 100% inhibition
[2] = 1 uM, read-out: % Inhib. @ 1 uM hGnRH
[3] = 1 h, repeat of % Inhib. at 1 uM, read-out: Repeats @ 1 uM hGnRH
[4] = 1 h, substrate remaining, closer to zero = closer to 100% inhibition

Row | Compound | inhibition at 1 µM [2] | inhibition at 1 µM [3] | other results
1 | Cc1cc2c(cc1Cc1ccc(C(=O)Nc3ccc(CCO)cc3)o1)C(C)(C)CCC2(C)C [Compound 323] | – | – | remaining activity at 10 µM [1]: 1%
2 | Cc1cc2c(cc1Cc1ccc(C(=O)NCc3ccc(F)c(C(F)(F)F)c3)o1)C(C)(C)CCC2(C)C | 11% | 16% | –
3 | Cc1cc2c(cc1Cc1ccc(C(=O)NC(C)c3ccc([N+](=O)[O-])cc3)o1)C(C)(C)CCC2(C)C (stereo not drawn) [drawing 1238] | 41% | 44% | –
4 | Cc1cc2c(cc1Cc1ccc(C(=O)NCCCN3CCCCC3C)o1)C(C)(C)CCC2(C)C (stereo not drawn) [drawing 983] | 27% | 31% | –
5 | Cc1cc2c(cc1Cc1ccc(C(=O)NCc3ccc(F)cc3F)o1)C(C)(C)CCC2(C)C [Compound 445] | – | – | remaining activity at 1 µM [4]: 22%
6 | Cc1cc2c(cc1Cc1ccc(C(=O)NCc3ccc(Cl)cc3)o1)C(C)(C)CCC2(C)C [drawing 1091] | 68% | 68% | –
7 | COc1cc(CCNC(=O)c2ccc(Cc3cc4c(cc3C)C(C)(C)CCC4(C)C)o2)cc(OC)c1 [drawing 1148] | 44% | 48% | –
8 | COc1cc(OC)c(OC)cc1Cc1ccc(C(=O)Nc2c(OC)cccc2OC)o1 [Compound 235] | – | – | IC50: 3.72 µM
9 | Cc1cc2c(cc1Cc1ccc(C(=O)NC3CCCC(Nc4ccnc(NCC5CCCO5)n4)C3)o1)C(C)(C)CCC2(C)C (stereo not drawn) [drawing 1045] | 17% | 25% | –
10 | COc1ccc(OC)c(NC(=O)c2ccc(Cc3cc4c(cc3C)C(C)(C)CCC4(C)C)o2)c1 [Compound 330] | – | – | remaining activity at 10 µM [1]: 10%
11 | Cc1cc2c(cc1Cc1ccc(C(=O)NCCc3ccc([N+](=O)[O-])cc3)o1)C(C)(C)CCC2(C)C [drawing 1057] | 30% | 44% | –
12 | Cc1cc2c(cc1Cc1ccc(C(=O)NCc3cccc(Cl)c3)o1)C(C)(C)CCC2(C)C [Compound 427] | – | – | remaining activity at 1 µM [4]: 20%
13 | Cc1cc2c(cc1Cc1ccc(C(=O)NC(C)c3ccc(F)cc3)o1)C(C)(C)CCC2(C)C (stereo not drawn) | 28% | 35% | –
14 | CCOc1cccc(O)c1NC(=O)c1ccc(Cc2cc3c(cc2C)C(C)(C)CCC3(C)C)o1 [Compound 192] | – | – | IC50: 0.235 µM
15 | CC(=O)c1ccc(NC(=O)c2ccc(Cc3cc4c(cc3C)C(C)(C)CCC4(C)C)o2)cc1 [Compound 396] | – | – | remaining activity at 10 µM [1]: 55%
16 | Cc1cc2c(cc1Cc1ccc(C(=O)NCC(O)c3ccc(O)cc3)o1)C(C)(C)CCC2(C)C (stereo not drawn) | 25% | 28% | –
17 | CNC(=O)c1ccc(Cc2cc3c(cc2C)C(C)(C)CCC3(C)C)o1 [Compound 37] | – | – | IC50: 2.1 µM
18 | Cc1cc2c(cc1Cc1ccc(C(=O)NCCOCCO)o1)C(C)(C)CCC2(C)C [drawing 1068] | 67% | 69% | –
19 | Cc1cc2c(cc1Cc1ccc(C(=O)NCC3CN(Cc4ccccc4)CCO3)o1)C(C)(C)CCC2(C)C (stereo not drawn) [drawing 1049] | 35% | 42% | –
20 | Cc1cc2c(cc1Cc1ccc(C(=O)NCc3cccc4c3Cc3ccccc3-4)o1)C(C)(C)CCC2(C)C | -21% | -23% | –

Row | Compound | inhibition at 1 µM [2] | inhibition at 1 µM [3] | other results
21 | Cc1cc2c(cc1Cc1ccc(C(=O)NCC(O)c3ccccc3)o1)C(C)(C)CCC2(C)C (stereo not drawn) [drawing 1196] | 68% | 69% | –
22 | Cc1cc2c(cc1Cc1ccc(C(=O)NCc3cccc4ccccc34)o1)C(C)(C)CCC2(C)C [Compound 422] | – | – | remaining activity at 1 µM [4]: 34%
23 | Cc1cc2c(cc1Cc1ccc(C(=O)NCCCN3CCCC3=O)o1)C(C)(C)CCC2(C)C [Compound 424] | – | – | remaining activity at 1 µM [4]: 31%
24 | COc1ccc(CCN(C)C(=O)c2ccc(Cc3cc4c(cc3C)C(C)(C)CCC4(C)C)o2)cc1OC | 13% | 7% | –
25 | COc1cc(OC)c(CNC(=O)c2ccc(Cc3cc4c(cc3C)C(C)(C)CCC4(C)C)o2)c(OC)c1 [Compound 172] | – | – | IC50: 3.2 µM
26 | COC(=O)c1cc(C)nc(NCc2cccc(CNC(=O)c3ccc(Cc4cc5c(cc4C)C(C)(C)CCC5(C)C)o3)c2)n1 [Compound 158] | – | – | IC50: 1.09 µM
27 | Cc1cc2c(cc1Cc1ccc(C(=O)NCc3ccc(S(N)(=O)=O)cc3)o1)C(C)(C)CCC2(C)C [drawing 1052] | 71% | 76% | –
28 | Cc1cc2c(cc1Cc1ccc(C(=O)NCC(=O)O)o1)C(C)(C)CCC2(C)C [Compound 162] | – | – | IC50: > 10 µM
29 | COc1cc(CNC(=O)c2ccc(Cc3cc4c(cc3C)C(C)(C)CCC4(C)C)o2)cc(OC)c1 [drawing 1026] | 24% | 35% | –
30 | Cc1cc2c(cc1Cc1ccc(C(=O)NC(C)C(O)c3ccccc3)o1)C(C)(C)CCC2(C)C (stereo not drawn) | 12% | 14% | –
31 | Cc1cc2c(cc1Cc1ccc(C(=O)Nc3ccccc3C(=O)NCC(C)(C)CN(C)C)o1)C(C)(C)CCC2(C)C [Compound 344] | – | – | remaining activity at 10 µM [1]: 57%
32 | Cc1cc2c(cc1Cc1ccc(C(=O)N(C)[C@@H](C)[C@H](C)c3ccccc3)o1)C(C)(C)CCC2(C)C | -7% | 4% | –
33 | Cc1cc2c(cc1Cc1ccc(C(=O)NCCc3c[nH]cn3)o1)C(C)(C)CCC2(C)C [drawing 1031] | 22% | 28% | –
34 | Cc1cc2c(cc1Cc1ccc(C(=O)Nc3ncccc3C)o1)C(C)(C)CCC2(C)C [Compound 379] | – | – | remaining activity at 10 µM [1]: 4%
35 | Cc1cc2c(cc1Cc1ccc(C(=O)NCC3CCC(C(=O)O)CC3)o1)C(C)(C)CCC2(C)C (stereo not drawn) [drawing 1024] | 66% | 76% | –
36 | Cc1cc2c(cc1Cc1ccc(C(=O)Nc3ccc4cn[nH]c4c3)o1)C(C)(C)CCC2(C)C [Compound 365] | – | – | remaining activity at 10 µM [1]: 47%
37 | Cc1cc2c(cc1Cc1ccc(C(=O)Nc3ccc4[nH]ccc4c3)o1)C(C)(C)CCC2(C)C [Compound 354] | – | – | S%R 10 uM hGnRHR (substrate remaining, 10 uM compound, closer to zero = closer to 100% inhibition): −5%
38 | Cc1cc2c(cc1Cc1ccc(C(=O)N3CCN(c4ccc(C(F)(F)F)cc4)CC3)o1)C(C)(C)CCC2(C)C | -12% | 1% | –
39 | Cc1cc2c(cc1Cc1ccc(C(=O)Nc3cccc(C#N)c3)o1)C(C)(C)CCC2(C)C [Compound 351] | – | – | remaining activity at 10 µM [1]: 24%
40 | Cc1cc2c(cc1Cc1ccc(C(=O)N3CCN(c4ccc(O)cc4)CC3)o1)C(C)(C)CCC2(C)C | -12% | -6% | –

Row | Compound | inhibition at 1 µM [2] | inhibition at 1 µM [3] | other results
41 | Cc1cc2c(cc1Cc1ccc(C(=O)Nc3ccccc3C(=O)N3CCN(C)CC3)o1)C(C)(C)CCC2(C)C [Compound 348] | – | – | remaining activity at 10 µM [1]: 49%
42 | Cc1cc2c(cc1Cc1ccc(C(=O)N3CCN(c4ccccc4Cl)CC3)o1)C(C)(C)CCC2(C)C | -1% | -7% | –
43 | Cc1cc2c(cc1Cc1ccc(C(=O)N(CC(O)c3ccccc3)C3CCCCC3)o1)C(C)(C)CCC2(C)C (stereo not drawn) | -12% | -9% | –
44 | Cc1cc2c(cc1Cc1ccc(C(=O)N3CCc4cc(O)c(O)cc4C3C)o1)C(C)(C)CCC2(C)C (stereo not drawn) | -13% | -5% | –
45 | Cc1cc2c(cc1Cc1ccc(C(=O)N3CCN(c4ccccc4C#N)CC3)o1)C(C)(C)CCC2(C)C | -5% | 62% | –
46 | Cc1cc2c(cc1Cc1ccc(C(=O)N(CCCO)Cc3ccccn3)o1)C(C)(C)CCC2(C)C [Compound 214] | – | – | IC50: > 10 µM
47 | Cc1cc2c(cc1Cc1ccc(C(=O)NCc3ccccc3Oc3ccccc3CO)o1)C(C)(C)CCC2(C)C [Compound 421] | – | – | remaining activity at 1 µM [4]: 48%
48 | Cc1cc2c(cc1Cc1ccc(C(=O)NCc3ccccc3)o1)C(C)(C)CCC2(C)C [Compound 402] | – | – | remaining activity at 1 µM [4]: 18%
49 | Cc1cc2c(cc1Cc1ccc(C(=O)NC(C)(C)Cc3ccccc3)o1)C(C)(C)CCC2(C)C | 38% | 39% | –
50 | COc1cc(OC)c(NC(=O)c2ccc(Cc3c(C)c(C)c4c(c3C)C=CC(C)(C)O4)o2)c(OC)c1 [Compound 184] | – | – | IC50: 0.56 µM
51 | Cc1cc2c(cc1Cc1ccc(C(=O)N(Cc3ccccc3F)C3CCN(Cc4ccccc4)C3)o1)C(C)(C)CCC2(C)C (stereo not drawn) | 7% | 9% | –
52 | Cc1cc2c(cc1Cc1ccc(C(=O)NCCSCc3c(Cl)cccc3Cl)o1)C(C)(C)CCC2(C)C | 14% | 20% | –
53 | Cc1cc2c(cc1Cc1ccc(C(=O)NCCc3ccccc3Cl)o1)C(C)(C)CCC2(C)C [drawing 1104] | 55% | 63% | –
54 | Cc1cc2c(cc1Cc1ccc(C(=O)Nc3cccc(CO)c3)o1)C(C)(C)CCC2(C)C [Compound 121] | – | – | IC50: 1.1 µM
55 | Cc1cc2c(cc1Cc1ccc(C(=O)NCc3ccc(C(F)(F)F)cc3)o1)C(C)(C)CCC2(C)C | 40% | 41% | –
56 | COC(CNC(=O)c1ccc(Cc2cc3c(cc2C)C(C)(C)CCC3(C)C)o1)OC [Compound 131] | – | – | IC50: 0.6 µM
57 | COc1ccccc1NC(=O)c1ccc(Cc2cc3c(cc2C)C(C)(C)CCC3(C)C)o1 [Compound 160] | – | – | IC50: 0.39 µM
58 | Cc1cc2c(cc1Cc1ccc(C(=O)NCc3cccc(CNc4nccc(C(F)(F)F)n4)c3)o1)C(C)(C)CCC2(C)C [Compound 143] | – | – | IC50: 1.87 µM
59 | Cc1cc2c(cc1Cc1ccc(C(=O)NCc3ccc(N(C)C)cc3)o1)C(C)(C)CCC2(C)C [drawing 1220] | 78% | 85% | –
60 | Cc1cc2c(cc1Cc1ccc(C(=O)NCc3ccc(Br)cc3)o1)C(C)(C)CCC2(C)C [drawing 1234] | 49% | 52% | –
